Here are results for twelve compounds from ChEMBL document CHEMBL4411298, “Small molecule-drug conjugates: A novel strategy for cancer-targeted treatment” (Eur J Med Chem, 2019).

A short description of data set [1]: Prodrug conversion assessed as half life for parent compound release at pH 5. It is filed as ADME.
Data set [2] can be described thus: Half life in pH 7.4 buffer at 37 degC in presence of 8 mM DTT. The settings on record: pH 7.4 buffer with 8 mM DTT. It counts as physicochemical.
The species named for data set [3] is Homo sapiens. In words: Binding affinity to folate receptor in human KB cells after 1 hr in presence of [3H]-FA by scintillation counting assay relative to control. It counts as cell-based.
Data set [4] concerns KB. Put plainly: Antitumor activity against human KB cells xenografted in mouse assessed as complete tumor reversion incidence at 0.5 umol/kg. It counts as functional. (In general: Xenograft models place foreign cells or tissue in a host animal.)
The subject of data set [5] is KB. In words: Growth inhibition of human KB cells. It is filed as functional, cell-based.
In data set [6] the test system is LNCaP. In words: Growth inhibition of PSMA-positive human LNCAP cells. It is filed as functional, cell-based.
Data set [7] can be described thus: Half life in pH 7.4 buffer at 37 degC in presence of GSH. The settings on record: pH 7.4 buffer with GSH. It is filed as physicochemical.
Data set [8] can be described thus: Drug metabolism assessed as half life for N-hydroxyethylvindesine release at pH 7.4.
The nature of data set [9]: Drug metabolism assessed as half life for N-hydroxyethylvindesine release at pH 5.
The species entered for data set [10] is Homo sapiens. Put plainly: Antitumor activity against NSCLC patients assessed as overall survival in presence of docetaxel in phase 2b clinical trial. It counts as functional.
Data set [11] is described as follows: Drug metabolism assessed as half life for cleavage of disulfide bond at 1 mM pH 7.4 PBS in presence of 20 mM GSH at 37 degC.
The nature of data set [12]: Drug metabolism assessed as half life for cleavage of disulfide bond at 1 mM pH 7.4 PBS in presence of DTT at 37 degC.
The species named for data set [13] is Homo sapiens. In words: Antitumor activity against NSCLC patients assessed as progression-free survival in presence of docetaxel in phase 2b clinical trial. It is filed as functional.

Turning to `CC[C@]1(O)C[C@H]2CN(CCc3c([nH]c4ccccc34)[C@@](C(=O)OC)(c3cc4c(cc3OC)N(C)[C@H]3[C@@](O)(C(=O)N/N=C(\C)c5ccc(N6C(=O)CC(SC[C@H](NC(=O)[C@H](CC(=O)O)NC(=O)[C@H](CC(=O)O)NC(=O)[C@H](CCCNC(=N)N)NC(=O)[C@H](CC(=O)O)NC(=O)CC[C@H](NC(=O)c7ccc(NCc8cnc9nc(N)[nH]c(=O)c9n8)cc7)C(=O)O)C(=O)O)C6=O)cc5)[C@H](O)[C@]5(CC)C=CCN6CC[C@]43[C@@H]65)C2)C1` (some centres undefined), the t1/2 in data set [1] came out at 5.5 h.
For the compound `CC[C@]1(O)C[C@H]2CN(CCc3c([nH]c4ccccc34)[C@@](C(=O)OC)(c3cc4c(cc3OC)N(C)[C@H]3[C@@](O)(C(=O)NNC(=O)OC(C)C(C)SSC[C@H](NC(=O)[C@H](CC(=O)O)NC(=O)[C@H](CC(=O)O)NC(=O)[C@H](CCCNC(=N)N)NC(=O)[C@H](CC(=O)O)NC(=O)CC[C@H](NC(=O)c5ccc(NCc6cnc7nc(N)[nH]c(=O)c7n6)cc5)C(=O)O)C(=O)O)[C@H](O)[C@]5(CC)C=CCN6CC[C@]43[C@@H]65)C2)C1` (some centres undefined), the half-life in data set [2] was 30 min.
As for `CC[C@]1(O)C[C@H]2CN(CCc3c([nH]c4ccccc34)[C@@](C(=O)OC)(c3cc4c(cc3OC)N(C)[C@H]3[C@@](O)(C(=O)NNC(=O)OCCSSC[C@H](NC(=O)c5ccc(NCc6cnc7nc(N)[nH]c(=O)c7n6)cc5)C(=O)O)[C@H](O)[C@]5(CC)C=CCN6CC[C@]43[C@@H]65)C2)C1`, the relative binding affinity (RBA) in [3] is 0.046.
Regarding `CC[C@]1(O)C[C@H]2CN(CCc3c([nH]c4ccccc34)[C@@](C(=O)OC)(c3cc4c(cc3OC)N(C)[C@H]3[C@@](O)(C(=O)NNC(=O)OC(C)C(C)SSC(C)(C)[C@H](NC(=O)[C@H](CC(=O)O)NC(=O)[C@H](CC(=O)O)NC(=O)[C@H](CCCNC(=N)N)NC(=O)[C@H](CC(=O)O)NC(=O)CC[C@H](NC(=O)c5ccc(NCc6cnc7nc(N)[nH]c(=O)c7n6)cc5)C(=O)O)C(=O)O)[C@H](O)[C@]5(CC)C=CCN6CC[C@]43[C@@H]65)C2)C1` (some centres undefined), the half-life in data set [2] is over 480 min.
In the case of `CC[C@H](C)[C@H](NC(=O)[C@H]1CCCCN1C)C(=O)N(COC(=O)CC(C)C)[C@H](C[C@@H](OC(C)=O)c1nc(C(=O)N[C@@H](Cc2ccc(O)cc2)C[C@H](C)C(=O)NNC(=O)OCCSSC[C@H](NC(=O)[C@H](CC(=O)O)NC(=O)[C@H](CC(=O)O)NC(=O)[C@H](CCCNC(=N)N)NC(=O)[C@H](CC(=O)O)NC(=O)CC[C@H](NC(=O)c2ccc(NCc3cnc4nc(N)[nH]c(=O)c4n3)cc2)C(=O)O)C(=O)O)cs1)C(C)C`, the Activity in data set [4] is recorded as 80%.
On to `Nc1nc(=O)c2nc(CNc3ccc(C(=O)N[C@@H](CCC(=O)O)C(=O)O)cc3)cnc2[nH]1`, for which the relative binding affinity (RBA) in data set [3] stood at 1.
In the case of `CCCC(=O)OCN(C(=O)[C@@H](NC(=O)[C@H]1CCCCN1C)[C@@H](C)CC)[C@H](C[C@@H](OC(C)=O)c1nc(C(=O)N[C@@H](Cc2ccc(O)cc2)C[C@H](C)C(=O)NNC(=O)OCCSSC[C@H](NC(=O)[C@H](CC(=O)O)NC(=O)[C@H](CC(=O)O)NC(=O)[C@H](CCCNC(=N)N)NC(=O)[C@H](CC(=O)O)NC(=O)CC[C@H](NC(=O)c2ccc(NCc3cnc4nc(N)[nH]c(=O)c4n3)cc2)C(=O)O)C(=O)O)cs1)C(C)C`, the Activity in data set [4] was 80%. In data set [5], this compound displayed an IC50 of 7 nM.
Take `CCCC(=O)OCN(C(=O)[C@@H](NC(=O)[C@H]1CCCCN1C)[C@@H](C)CC)[C@H](C[C@@H](OC(C)=O)c1nc(C(=O)N[C@@H](Cc2ccc(O)cc2)C[C@H](C)C(=O)NNC(=O)OCCSSC[C@H](NC(=O)[C@H](Cc2ccccc2)NC(=O)[C@H](CC(=O)O)NC(=O)CC[C@H](NC(=O)CC[C@@H](NC(=O)N[C@@H](CCC(=O)O)C(=O)O)C(=O)O)C(=O)O)C(=O)O)cs1)C(C)C`: half-maximal inhibition in data set [6] (IC50) required 3 nM.
With `CC[C@]1(O)C[C@H]2CN(CCc3c([nH]c4ccccc34)[C@@](C(=O)OC)(c3cc4c(cc3OC)N(C)[C@H]3[C@@](O)(C(=O)NNC(=O)OCc5ccc(SSC[C@H](NC(=O)[C@H](CC(=O)O)NC(=O)[C@H](CC(=O)O)NC(=O)[C@H](CCCNC(=N)N)NC(=O)[C@H](CC(=O)O)NC(=O)CC[C@H](NC(=O)c6ccc(NCc7cnc8nc(N)[nH]c(=O)c8n7)cc6)C(=O)O)C(=O)O)cc5)[C@H](O)[C@]5(CC)C=CCN6CC[C@]43[C@@H]65)C2)C1`, the half-life in data set [7] was 45 min; in data set [2] it was under 5 min.
Turning to `CC[C@]1(O)C[C@H]2CN(CCc3c([nH]c4ccccc34)[C@@](C(=O)OC)(c3cc4c(cc3OC)N(C)[C@H]3[C@@](O)(C(=O)NCCOC(OC)c5ccc(OCCN6C(=O)CC(SC[C@H](NC(=O)[C@H](CC(=O)O)NC(=O)[C@H](CC(=O)O)NC(=O)[C@H](CCCNC(=N)N)NC(=O)[C@H](CC(=O)O)NC(=O)CC[C@H](NC(=O)c7ccc(NCc8cnc9nc(N)[nH]c(=O)c9n8)cc7)C(=O)O)C(=O)O)C6=O)cc5)[C@H](O)[C@]5(CC)C=CCN6CC[C@]43[C@@H]65)C2)C1` (some centres undefined), the T1/2 came to 22 h in data set [8] and 25 min in data set [9].
Consider `CC[C@]1(O)C[C@H]2CN(CCc3c([nH]c4ccccc34)[C@@](C(=O)OC)(c3cc4c(cc3OC)N(C)[C@H]3[C@@](O)(C(=O)NNC(=O)OCCSSC[C@H](NC(=O)[C@H](CC(=O)O)NC(=O)[C@H](CC(=O)O)NC(=O)[C@H](CCCNC(=N)N)NC(=O)[C@H](CC(=O)O)NC(=O)CC[C@H](NC(=O)c5ccc(NCc6cnc7nc(N)[nH]c(=O)c7n6)cc5)C(=O)O)C(=O)O)[C@H](O)[C@]5(CC)C=CCN6CC[C@]43[C@@H]65)C2)C1`, for which the Survival in data set [10] came out at 10.9 months; in data set [13] it was 7.1 months. Besides, the T1/2 in [11] came out at 1 h; in data set [12], 5 min. The relative binding affinity (RBA) in data set [3] stood at 0.47.
Regarding `CC[C@]1(O)C[C@H]2CN(CCc3c([nH]c4ccccc34)[C@@](C(=O)OC)(c3cc4c(cc3OC)N(C)[C@H]3[C@@](O)(C(=O)NNC(=O)OCCSSC(C)(C)[C@H](NC(=O)[C@H](CC(=O)O)NC(=O)[C@H](CC(=O)O)NC(=O)[C@H](CCCNC(=N)N)NC(=O)[C@H](CC(=O)O)NC(=O)CC[C@H](NC(=O)c5ccc(NCc6cnc7nc(N)[nH]c(=O)c7n6)cc5)C(=O)O)C(=O)O)[C@H](O)[C@]5(CC)C=CCN6CC[C@]43[C@@H]65)C2)C1`, the half-life in data set [2] is 60 min.

The half-life is the time needed for the level to fall by half in the phase considered. By IC50 is commonly meant the midpoint of a concentration-inhibition curve. Lower therefore signals inhibition by little substance.
